Test results: ChEMBL document CHEMBL1153482, “Design of selective Cathepsin inhibitors” (Bioorg Med Chem Lett, 2009)

These molecules were tested against T1, Cathepsin K (Homo sapiens, UniProt P43235) (assay: Inhibition of cathepsin K assessed as inhibition of fluorogenic substrate cleavage).
T1 sequence (P43235 whole entry): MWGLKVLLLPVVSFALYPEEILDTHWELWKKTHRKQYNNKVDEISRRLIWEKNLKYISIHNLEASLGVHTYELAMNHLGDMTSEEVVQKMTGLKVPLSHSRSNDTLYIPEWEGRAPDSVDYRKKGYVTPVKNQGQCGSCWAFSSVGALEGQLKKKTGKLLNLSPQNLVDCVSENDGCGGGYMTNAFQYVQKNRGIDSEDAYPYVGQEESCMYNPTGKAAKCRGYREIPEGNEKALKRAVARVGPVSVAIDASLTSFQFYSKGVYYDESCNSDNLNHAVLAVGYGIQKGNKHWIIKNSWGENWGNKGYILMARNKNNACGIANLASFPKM

For `N#CCNC(=O)[C@H](Cc1cccc(-c2ccnnc2)c1)NC(=O)c1ccccc1`, which IC50 is on record?
The IC50 was over 10000 nM.

`N#CCNC(=O)[C@H](Cc1cccc(-c2ccccn2)c1)NC(=O)c1ccccc1` was tested. Which IC50 did it give?
Its IC50 is over 10000 nM.

Which IC50 does the source give for `Cn1nccc1-c1cccc(C[C@H](NC(=O)c2ccccc2)C(=O)NCC#N)c1` here?
The IC50 was over 10000 nM.

`Cn1nc(C(C)(C)C)cc1C(=O)N[C@@H](Cc1cccc(Cl)c1)C(=O)NCC#N` was tested. Which IC50 did it give?
Its IC50 is 3160 nM.

`N#CCNC(=O)[C@H](Cc1cccc(-c2cccnn2)c1)NC(=O)c1ccccc1` was tested. Which IC50 did it give?
Its IC50 is over 6310 nM.

How did the IC50 turn out when `Cc1cccc(C[C@H](NC(=O)c2cc(C(C)(C)C)nn2C)C(=O)NCC#N)c1` was run?
The IC50 was 2510 nM.

For `N#CCNC(=O)[C@H](Cc1cccc(-c2cn[nH]c2)c1)NC(=O)c1ccccc1`, which IC50 is on record?
The IC50 was over 10000 nM.

For `Cn1nc(C(C)(C)C)cc1C(=O)N[C@@H](Cc1cccc(-c2nnc(CCN)o2)c1)C(=O)NCC#N`, which IC50 is on record?
Its IC50 is 158 nM.

How did the IC50 turn out when `N#CCNC(=O)[C@H](Cc1cccc(-c2cncnc2)c1)NC(=O)c1ccccc1` was run?
The IC50 was over 7940 nM.

With `Cn1cc(-c2cccc(C[C@H](NC(=O)c3cc(C(C)(C)C)nn3C)C(=O)NCC#N)c2)cn1` as the molecule, how does the IC50 read?
Its IC50 is 6310 nM.

With `Cn1cc(-c2cccc(C[C@H](NC(=O)c3ccccc3)C(=O)NCC#N)c2)cn1` as the molecule, how does the IC50 read?
Its IC50 is over 10000 nM.

`Cn1nc(C(C)(C)C)cc1C(=O)N[C@@H](Cc1cccc(-c2nnc(CO)o2)c1)C(=O)NCC#N` was tested. Which IC50 did it give?
The IC50 was 100 nM.

The molecules below were run against T2, Cathepsin L2 (Homo sapiens, UniProt O60911) (assay: Inhibition of cathepsin L2 assessed as inhibition of fluorogenic substrate cleavage).
T2 sequence (O60911 whole entry): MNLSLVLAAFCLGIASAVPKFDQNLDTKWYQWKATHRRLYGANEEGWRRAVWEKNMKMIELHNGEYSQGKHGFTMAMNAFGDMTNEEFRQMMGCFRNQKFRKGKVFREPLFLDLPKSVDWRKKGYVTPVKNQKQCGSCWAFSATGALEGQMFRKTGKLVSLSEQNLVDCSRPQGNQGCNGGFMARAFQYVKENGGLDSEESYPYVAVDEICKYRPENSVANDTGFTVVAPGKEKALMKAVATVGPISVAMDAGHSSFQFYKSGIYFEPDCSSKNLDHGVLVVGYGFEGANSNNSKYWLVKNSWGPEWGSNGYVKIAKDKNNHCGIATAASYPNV

`N#CCNC(=O)[C@H](Cc1cccc(-c2ccnnc2)c1)NC(=O)c1ccccc1` was tested. Which IC50 did it give?
Its IC50 is over 10000 nM.

How did the IC50 turn out when `N#CCNC(=O)[C@H](Cc1cccc(-c2ccccn2)c1)NC(=O)c1ccccc1` was run?
Its IC50 is over 10000 nM.

How did the IC50 turn out when `Cn1nccc1-c1cccc(C[C@H](NC(=O)c2ccccc2)C(=O)NCC#N)c1` was run?
The IC50 was 3160 nM.

With `Cn1nc(C(C)(C)C)cc1C(=O)N[C@@H](Cc1cccc(Cl)c1)C(=O)NCC#N` as the molecule, how does the IC50 read?
The IC50 was 200 nM.

How did the IC50 turn out when `N#CCNC(=O)[C@H](Cc1cccc(-c2cccnn2)c1)NC(=O)c1ccccc1` was run?
Its IC50 is 63.1 nM.

Which IC50 does the source give for `Cc1cccc(C[C@H](NC(=O)c2cc(C(C)(C)C)nn2C)C(=O)NCC#N)c1` here?
Its IC50 is 398 nM.

How did the IC50 turn out when `N#CCNC(=O)[C@H](Cc1cccc(-c2cn[nH]c2)c1)NC(=O)c1ccccc1` was run?
The IC50 was 1580 nM.

For `Cn1nc(C(C)(C)C)cc1C(=O)N[C@@H](Cc1cccc(-c2nnc(CCN)o2)c1)C(=O)NCC#N`, which IC50 is on record?
The IC50 was 100 nM.

How did the IC50 turn out when `N#CCNC(=O)[C@H](Cc1cccc(-c2cncnc2)c1)NC(=O)c1ccccc1` was run?
Its IC50 is over 7940 nM.

For `Cn1cc(-c2cccc(C[C@H](NC(=O)c3cc(C(C)(C)C)nn3C)C(=O)NCC#N)c2)cn1`, which IC50 is on record?
Its IC50 is 158 nM.

`Cn1cc(-c2cccc(C[C@H](NC(=O)c3ccccc3)C(=O)NCC#N)c2)cn1` was tested. Which IC50 did it give?
Its IC50 is 1580 nM.

`Cn1nc(C(C)(C)C)cc1C(=O)N[C@@H](Cc1cccc(-c2nnc(CO)o2)c1)C(=O)NCC#N` was tested. Which IC50 did it give?
Its IC50 is 7.94 nM.

The molecules below were run against Cathepsin B (Homo sapiens, UniProt P07858) (assay: Inhibition of human liver cathepsin B assessed as inhibition of fluorogenic substrate cleavage).

How did the IC50 turn out when `N#CCNC(=O)[C@H](Cc1cccc(-c2ccnnc2)c1)NC(=O)c1ccccc1` was run?
Its IC50 is over 10000 nM.

How did the IC50 turn out when `N#CCNC(=O)[C@H](Cc1cccc(-c2ccccn2)c1)NC(=O)c1ccccc1` was run?
Its IC50 is 6310 nM.

Which IC50 does the source give for `Cn1nccc1-c1cccc(C[C@H](NC(=O)c2ccccc2)C(=O)NCC#N)c1` here?
Its IC50 is 7940 nM.

Which IC50 does the source give for `Cn1nc(C(C)(C)C)cc1C(=O)N[C@@H](Cc1cccc(Cl)c1)C(=O)NCC#N` here?
Its IC50 is 6310 nM.

With `N#CCNC(=O)[C@H](Cc1cccc(-c2cccnn2)c1)NC(=O)c1ccccc1` as the molecule, how does the IC50 read?
The IC50 was 6310 nM.

For `Cc1cccc(C[C@H](NC(=O)c2cc(C(C)(C)C)nn2C)C(=O)NCC#N)c1`, which IC50 is on record?
Its IC50 is 3980 nM.

With `N#CCNC(=O)[C@H](Cc1cccc(-c2cn[nH]c2)c1)NC(=O)c1ccccc1` as the molecule, how does the IC50 read?
Its IC50 is 7940 nM.

Which IC50 does the source give for `Cn1nc(C(C)(C)C)cc1C(=O)N[C@@H](Cc1cccc(-c2nnc(CCN)o2)c1)C(=O)NCC#N` here?
Its IC50 is 6310 nM.

Which IC50 does the source give for `N#CCNC(=O)[C@H](Cc1cccc(-c2cncnc2)c1)NC(=O)c1ccccc1` here?
The IC50 was over 10000 nM.

With `Cn1cc(-c2cccc(C[C@H](NC(=O)c3cc(C(C)(C)C)nn3C)C(=O)NCC#N)c2)cn1` as the molecule, how does the IC50 read?
The IC50 was over 10000 nM.

With `Cn1cc(-c2cccc(C[C@H](NC(=O)c3ccccc3)C(=O)NCC#N)c2)cn1` as the molecule, how does the IC50 read?
The IC50 was 6310 nM.

`Cn1nc(C(C)(C)C)cc1C(=O)N[C@@H](Cc1cccc(-c2nnc(CO)o2)c1)C(=O)NCC#N` was tested. Which IC50 did it give?
The IC50 was over 10000 nM.

The molecules below were run against Procathepsin L (Homo sapiens, UniProt P07711) (assay: Inhibition of cathepsin L assessed as inhibition of fluorogenic substrate cleavage).
Sequence of Procathepsin L (P07711 whole entry): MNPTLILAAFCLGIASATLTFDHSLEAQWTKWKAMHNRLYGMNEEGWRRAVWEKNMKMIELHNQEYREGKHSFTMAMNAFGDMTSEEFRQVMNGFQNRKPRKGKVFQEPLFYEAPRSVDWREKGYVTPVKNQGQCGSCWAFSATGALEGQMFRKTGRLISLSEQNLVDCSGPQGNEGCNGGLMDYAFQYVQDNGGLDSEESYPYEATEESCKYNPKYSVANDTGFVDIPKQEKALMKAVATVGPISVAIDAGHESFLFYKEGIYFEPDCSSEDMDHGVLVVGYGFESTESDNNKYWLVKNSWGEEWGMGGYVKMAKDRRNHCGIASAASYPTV

With `N#CCNC(=O)[C@H](Cc1cccc(-c2ccnnc2)c1)NC(=O)c1ccccc1` as the molecule, how does the IC50 read?
Its IC50 is over 7940 nM.

For `N#CCNC(=O)[C@H](Cc1cccc(-c2ccccn2)c1)NC(=O)c1ccccc1`, which IC50 is on record?
The IC50 was 3160 nM.

How did the IC50 turn out when `Cn1nccc1-c1cccc(C[C@H](NC(=O)c2ccccc2)C(=O)NCC#N)c1` was run?
The IC50 was 3160 nM.

With `Cn1nc(C(C)(C)C)cc1C(=O)N[C@@H](Cc1cccc(Cl)c1)C(=O)NCC#N` as the molecule, how does the IC50 read?
The IC50 was 12.6 nM.

For `N#CCNC(=O)[C@H](Cc1cccc(-c2cccnn2)c1)NC(=O)c1ccccc1`, which IC50 is on record?
The IC50 was 1260 nM.

With `N#CCNC(=O)[C@H](Cc1cccc(-c2cn[nH]c2)c1)NC(=O)c1ccccc1` as the molecule, how does the IC50 read?
Its IC50 is 794 nM.

How did the IC50 turn out when `Cn1nc(C(C)(C)C)cc1C(=O)N[C@@H](Cc1cccc(-c2nnc(CCN)o2)c1)C(=O)NCC#N` was run?
The IC50 was 1.26 nM.

Which IC50 does the source give for `N#CCNC(=O)[C@H](Cc1cccc(-c2cncnc2)c1)NC(=O)c1ccccc1` here?
The IC50 was 3980 nM.

With `Cn1cc(-c2cccc(C[C@H](NC(=O)c3cc(C(C)(C)C)nn3C)C(=O)NCC#N)c2)cn1` as the molecule, how does the IC50 read?
The IC50 was 15.8 nM.

For `Cn1cc(-c2cccc(C[C@H](NC(=O)c3ccccc3)C(=O)NCC#N)c2)cn1`, which IC50 is on record?
Its IC50 is 501 nM.

With `Cn1nc(C(C)(C)C)cc1C(=O)N[C@@H](Cc1cccc(-c2nnc(CO)o2)c1)C(=O)NCC#N` as the molecule, how does the IC50 read?
The IC50 was 6.31 nM.

What follows are molecules tested against Cathepsin S (Homo sapiens, UniProt P25774) (assay: Inhibition of cathepsin S assessed as inhibition of fluorogenic substrate cleavage).
Sequence of Cathepsin S (P25774 whole entry): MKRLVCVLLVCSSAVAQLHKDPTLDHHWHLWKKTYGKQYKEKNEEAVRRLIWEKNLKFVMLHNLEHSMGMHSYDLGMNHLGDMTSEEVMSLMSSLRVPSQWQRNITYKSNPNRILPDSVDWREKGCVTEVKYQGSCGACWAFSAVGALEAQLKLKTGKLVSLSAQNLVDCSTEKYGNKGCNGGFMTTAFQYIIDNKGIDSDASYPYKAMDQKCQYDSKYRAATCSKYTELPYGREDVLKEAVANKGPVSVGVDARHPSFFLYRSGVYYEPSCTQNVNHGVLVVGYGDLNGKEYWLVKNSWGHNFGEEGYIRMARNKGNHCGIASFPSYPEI

Which IC50 does the source give for `N#CCNC(=O)[C@H](Cc1cccc(-c2ccnnc2)c1)NC(=O)c1ccccc1` here?
Its IC50 is 794 nM.

Which IC50 does the source give for `N#CCNC(=O)[C@H](Cc1cccc(-c2ccccn2)c1)NC(=O)c1ccccc1` here?
Its IC50 is 631 nM.

Which IC50 does the source give for `Cn1nccc1-c1cccc(C[C@H](NC(=O)c2ccccc2)C(=O)NCC#N)c1` here?
The IC50 was 316 nM.

For `Cn1nc(C(C)(C)C)cc1C(=O)N[C@@H](Cc1cccc(Cl)c1)C(=O)NCC#N`, which IC50 is on record?
The IC50 was 1000 nM.

`N#CCNC(=O)[C@H](Cc1cccc(-c2cccnn2)c1)NC(=O)c1ccccc1` was tested. Which IC50 did it give?
Its IC50 is 7.94 nM.

For `Cc1cccc(C[C@H](NC(=O)c2cc(C(C)(C)C)nn2C)C(=O)NCC#N)c1`, which IC50 is on record?
Its IC50 is 794 nM.

For `N#CCNC(=O)[C@H](Cc1cccc(-c2cn[nH]c2)c1)NC(=O)c1ccccc1`, which IC50 is on record?
The IC50 was 79.4 nM.

`Cn1nc(C(C)(C)C)cc1C(=O)N[C@@H](Cc1cccc(-c2nnc(CCN)o2)c1)C(=O)NCC#N` was tested. Which IC50 did it give?
The IC50 was 63.1 nM.

`N#CCNC(=O)[C@H](Cc1cccc(-c2cncnc2)c1)NC(=O)c1ccccc1` was tested. Which IC50 did it give?
The IC50 was 316 nM.

For `Cn1cc(-c2cccc(C[C@H](NC(=O)c3cc(C(C)(C)C)nn3C)C(=O)NCC#N)c2)cn1`, which IC50 is on record?
Its IC50 is 316 nM.

`Cn1cc(-c2cccc(C[C@H](NC(=O)c3ccccc3)C(=O)NCC#N)c2)cn1` was tested. Which IC50 did it give?
Its IC50 is 100 nM.

For `Cn1nc(C(C)(C)C)cc1C(=O)N[C@@H](Cc1cccc(-c2nnc(CO)o2)c1)C(=O)NCC#N`, which IC50 is on record?
Its IC50 is 63.1 nM.
